Assay results from patent publication US5440016A, “Peptides of the formula (KFmoc) ZZZ and their uses” (priority 1993, dated 1995).
≈ marks a conversion by molar mass, not a printed value. Like-named read-outs stand apart in the source and are kept apart here. Square brackets hold non-standard residues; d marks the D form. Peptide text beside a SMILES is read from it. * marks the point of attachment. Fmoc = O=C(OCC1c2ccccc2-c2ccccc21)*

What was measured:
[1] = system: Streptococcus sanguis ATCC 10556
Protocol: Streptococcus sanguis ATCC 10556 (Gram-positive (+) bacteria present in tooth crevices) was grown overnight at 37° C. in Brain Heart Infusion (BHI) broth. This culture was reinoculated and incubated at 37° C. to reach the exponential phase of bacteria growth, i.e., a final bacterial suspension containing 10^5 to 5×10^5 colony-forming units (CFU)/ml. The concentration of cells was established by plating 100 μl of different dilutions of the culture solution (e.g., 10^-2, 10^-4) and 10^-4) onto solid agar plates. Following an overnight incubation at 37° C., the CFU thus formed were counted on each agar plate. In 96-well tissue culture plates, as control blanks, eight wells per plate contained only medium, while as a positive growth control, eight other wells contained medium plus cells. […] The plates were incubated overnight at 37° C., and the optical density (OD) determined at 620 nm after 20 to 24 hours incubation.

[2] = system: Staphylococcus aureus ATCC 29213
Protocol: Escherichia coli ATCC 25922 and P. aeruginosa ATCC 27853 were used as Gram-negative (-) and Staphylococcus aureus ATCC 29213 as Gram-positive (+) bacteria. Bacteria were grown overnight at 37° C. in Mueller-Hinton (MH) broth. This culture was reinoculated and incubated at 37° C. to reach the exponential phase of bacteria growth, i.e., a final bacterial suspension containing 10^5 to 5×10^5 colony-forming units (CFU)/ml. The concentration of cells was established by plating 100 μl of different dilutions of the culture solution (e.g., 10^-2, 10^-3 and 10^-4) onto solid agar plates.
Following an overnight incubation at 37° C., the CFU thus formed were counted on each agar plate. In 96-well tissue culture plates, as control blanks, eight wells per plate contained only medium, while as a positive growth control, eight other wells contained medium plus cells.
The plates were incubated overnight at 37° C., and the optical density (OD) determined at 620 nm after different times of incubation.

[3] = system: Candida albicans ATCC 10231
[4] = system: Human red blood cells (RBCs); assay: Hemolytic activity; format: cell-based; details: Tables 18-21
[5] = system: Escherichia coli ATCC 25922
[6] = Tables 2-5, concentration necessary to inhibit 50% growth
[7] = Tables 11-13, lower parts (unnatural amino acids)
[8] = Tables 7-9, lower parts (unnatural amino acids)
[9] = Tables 15-17, lower parts (unnatural amino acids)
[10] = Tables 3-5, lower parts (unnatural amino acids)

Row | Compound | IC50 against S. sanguis ([1]; Tables 10-13) [µg/mL] | IC50 against S. aureus ([2]; Tables 6-9) [µg/mL] | IC50 against C. albicans ([3]; Tables 14-17) [µg/mL] | HD50 (concentration necessary to lyse 50% of the cells) [4] [µg/mL] | IC50 against E. coli [5, 6] [µg/mL] | IC50 against S. sanguis [1, 7] [μg/m] | IC50 against S. aureus [2, 8] [μg/m] | IC50 against C. albicans [3, 9] [μg/m] | IC50 against E. coli [5, 10] [μg/m]
1 | C[C@@H](NC(=O)[C@H](CCCCN)NC(=O)[C@H](Cc1c[nH]c2ccccc12)NC(=O)[C@H](CCCCN)NC(=O)OCC1c2ccccc2-c2ccccc21)C(N)=O [(KFmoc)WKa-NH2] (Fmoc-KWK[dA]-NH2) | 8 (≈ 10.6 µM) | 7 (≈ 9.3 µM) | 200 (≈ 266 µM) | 437 | 60 (≈ 79.7 µM) |  |  |  | 
2 | NCCCC[C@H](NC(=O)OCC1c2ccccc2-c2ccccc21)C(=O)N[C@@H](Cc1c[nH]c2ccccc12)C(=O)N[C@@H](CCCCN)C(=O)N[C@H](CS)C(N)=O [(KFmoc)WKc-NH2] (Fmoc-KWK[dC]-NH2) | 4 (≈ 5.1 µM) | 4 (≈ 5.1 µM) | 243 (≈ 310 µM) | 25 | 23 (≈ 29.3 µM) |  |  |  | 
3 | NCCCC[C@H](NC(=O)OCC1c2ccccc2-c2ccccc21)C(=O)N[C@@H](Cc1c[nH]c2ccccc12)C(=O)N[C@@H](CCCCN)C(=O)N[C@H](Cc1ccccc1)C(N)=O [(KFmoc)WKf-NH2] (Fmoc-KWK[dF]-NH2) | 6 (≈ 7.24 µM) | 10 (≈ 12.1 µM) | 133 (≈ 160 µM) | 126 | 38 (≈ 45.8 µM) |  |  |  | 
4 | NCCCC[C@H](NC(=O)OCC1c2ccccc2-c2ccccc21)C(=O)N[C@@H](Cc1c[nH]c2ccccc12)C(=O)N[C@@H](CCCCN)C(=O)N[C@H](Cc1c[nH]cn1)C(N)=O [(KFmoc)WKh-NH2] (Fmoc-KWK[dH]-NH2) | 6 (≈ 7.33 µM) | 6 (≈ 7.33 µM) | 156 (≈ 190 µM) | 313 | 52 (≈ 63.5 µM) |  |  |  | 
5 | CC[C@@H](C)[C@@H](NC(=O)[C@H](CCCCN)NC(=O)[C@H](Cc1c[nH]c2ccccc12)NC(=O)[C@H](CCCCN)NC(=O)OCC1c2ccccc2-c2ccccc21)C(N)=O [(KFmoc)WKi-NH2] (Fmoc-KWK[dI]-NH2) | 8 (≈ 10.1 µM) | 9 (≈ 11.3 µM) | 209 (≈ 263 µM) | 296 | 23 (≈ 28.9 µM) |  |  |  | 
6 | NCCCC[C@H](NC(=O)OCC1c2ccccc2-c2ccccc21)C(=O)N[C@@H](Cc1c[nH]c2ccccc12)C(=O)N[C@@H](CCCCN)C(=O)N[C@H](CCCCN)C(N)=O [(KFmoc)WKk-NH2] (Fmoc-KWK[dK]-NH2) | 7 (≈ 8.64 µM) | 8 (≈ 9.88 µM) | 126 (≈ 156 µM) |  |  |  |  |  | 
7 | CC(C)C[C@@H](NC(=O)[C@H](CCCCN)NC(=O)[C@H](Cc1c[nH]c2ccccc12)NC(=O)[C@H](CCCCN)NC(=O)OCC1c2ccccc2-c2ccccc21)C(N)=O [(KFmoc)WKl-NH2] (Fmoc-KWK[dL]-NH2) | 5 (≈ 6.29 µM) | 5 (≈ 6.29 µM) | 121 (≈ 152 µM) | 166 | 20 (≈ 25.2 µM) |  |  |  | 
8 | CSCC[C@@H](NC(=O)[C@H](CCCCN)NC(=O)[C@H](Cc1c[nH]c2ccccc12)NC(=O)[C@H](CCCCN)NC(=O)OCC1c2ccccc2-c2ccccc21)C(N)=O [(KFmoc)WKm-NH2] (Fmoc-KWK[dM]-NH2) | 7 (≈ 8.61 µM) | 7 (≈ 8.61 µM) | 163 (≈ 200 µM) | 178 | 41 (≈ 50.4 µM) |  |  |  | 
9 | NCCCC[C@H](NC(=O)OCC1c2ccccc2-c2ccccc21)C(=O)N[C@@H](Cc1c[nH]c2ccccc12)C(=O)N[C@@H](CCCCN)C(=O)N[C@H](CC(N)=O)C(N)=O [(KFmoc)WKn-NH2] (Fmoc-KWK[dN]-NH2) | 8 (≈ 10.1 µM) | 10 (≈ 12.6 µM) | 233 (≈ 293 µM) |  | 47 (≈ 59 µM) |  |  |  | 
10 | NCCCC[C@H](NC(=O)OCC1c2ccccc2-c2ccccc21)C(=O)N[C@@H](Cc1c[nH]c2ccccc12)C(=O)N[C@@H](CCCCN)C(=O)N1CCC[C@@H]1C(N)=O [(KFmoc)WKp-NH2] (Fmoc-KWK[dP]-NH2) | 5 (≈ 6.42 µM) | 8 (≈ 10.3 µM) | 251 (≈ 322 µM) | 437 | 39 (≈ 50.1 µM) |  |  |  | 
11 | NCCCC[C@H](NC(=O)OCC1c2ccccc2-c2ccccc21)C(=O)N[C@@H](Cc1c[nH]c2ccccc12)C(=O)N[C@@H](CCCCN)C(=O)N[C@H](CCC(N)=O)C(N)=O [(KFmoc)WKq-NH2] (Fmoc-KWK[dQ]-NH2) | 7 (≈ 8.64 µM) | 7 (≈ 8.64 µM) | 291 (≈ 359 µM) | 483 | 57 (≈ 70.4 µM) |  |  |  | 
12 | N=C(N)NCCC[C@@H](NC(=O)[C@H](CCCCN)NC(=O)[C@H](Cc1c[nH]c2ccccc12)NC(=O)[C@H](CCCCN)NC(=O)OCC1c2ccccc2-c2ccccc21)C(N)=O [(KFmoc)WKr-NH2] (Fmoc-KWK[dR]-NH2) | 5 (≈ 5.97 µM) | 7 (≈ 8.35 µM) | 98 (≈ 117 µM) | 324 | 66 (≈ 78.8 µM) |  |  |  | 
13 | NCCCC[C@H](NC(=O)OCC1c2ccccc2-c2ccccc21)C(=O)N[C@@H](Cc1c[nH]c2ccccc12)C(=O)N[C@@H](Cc1ccc(O)cc1)C(=O)N[C@H](CS)C(N)=O [(KFmoc)WYc-NH2] (Fmoc-KWY[dC]-NH2) | 42 (≈ 51.2 µM) | 21 (≈ 25.6 µM) |  |  |  |  |  |  | 
14 | NCCCC[C@H](NC(=O)OCC1c2ccccc2-c2ccccc21)C(=O)N[C@@H](Cc1c[nH]c2ccccc12)C(=O)N[C@@H](Cc1ccc(O)cc1)C(=O)N[C@H](CC(N)=O)C(N)=O [(KFmoc)WYn-NH2] (Fmoc-KWY[dN]-NH2) | 8 (≈ 9.63 µM) | 6 (≈ 7.22 µM) |  | 257 |  |  |  |  | 
15 | CC[C@@H](C)[C@@H](NC(=O)[C@@H](Cc1ccccc1)NC(=O)[C@H](Cc1c[nH]c2ccccc12)NC(=O)[C@H](CCCCN)NC(=O)OCC1c2ccccc2-c2ccccc21)C(N)=O [(KFmoc)Wfi-NH2] (Fmoc-KW[dF][dI]-NH2) | 4 (≈ 4.91 µM) | 4 (≈ 4.91 µM) |  |  |  |  |  |  | 
16 | NCCCC[C@H](NC(=O)OCC1c2ccccc2-c2ccccc21)C(=O)N[C@@H](Cc1c[nH]c2ccccc12)C(=O)N[C@H](Cc1ccccc1)C(=O)N[C@H](Cc1ccc(O)cc1)C(N)=O [(KFmoc)Wfy-NH2] (Fmoc-KW[dF][dY]-NH2) | 17 (≈ 19.7 µM) | 15 (≈ 17.4 µM) |  |  |  |  |  |  | 
17 | CC[C@@H](C)[C@@H](NC(=O)[C@@H](CS)NC(=O)[C@H](CCCCN)NC(=O)OCC1c2ccccc2-c2ccccc21)C(=O)N[C@H](C)C(N)=O [(KFmoc)cia-NH2] (Fmoc-K[dC][dI][dA]-NH2) | 59 (≈ 90.1 µM) |  |  | 77 |  |  |  |  | 
18 | CC[C@@H](C)[C@@H](NC(=O)[C@@H](CS)NC(=O)[C@H](CCCCN)NC(=O)OCC1c2ccccc2-c2ccccc21)C(=O)N[C@H](Cc1ccccc1)C(N)=O [(KFmoc)cif-NH2] (Fmoc-K[dC][dI][dF]-NH2) |  | 21 (≈ 28.7 µM) | 218 (≈ 298 µM) |  |  |  |  |  | 
19 | (KFmoc)WK(Cys[ACM])-NH2 | 11 | 11 | 303 |  | 49 |  |  |  | 
20 | (KFmoc)WK(Hyp)-NH2 | 10 | 10 | 370 |  | 62 |  |  |  | 
21 | (KFmoc)WK(KCBZ)-NH2 | 9 | 9 | 161 |  |  |  |  |  | 
22 | (KFmoc)WY(Hyp)-NH2 |  |  |  | 81 |  | 10 | 9 |  | 
23 | (KFmoc)WY(KCBZ)-NH2 |  |  |  |  |  | 9 | 9 | 309 | 59
24 | (KFmoc)Wf(7aHa)-NH2 |  |  |  |  |  | 10 | 7 |  | 
25 | (KFmoc)Wf(Cys[ACM])-NH2 |  |  |  |  |  | 30 | 18 |  | 
26 | (KFmoc)ci(Thiopro)-NH2 |  |  |  |  |  | 6 | 9 | 197 | 25
27 | (KFmoc)ciG-NH2 | 23 |  | 372 | 35 |  |  |  |  | 
